From publication PMC10683482, “Offsetting Low-Affinity Carbohydrate Binding with Covalency to Engage Sugar-Specific Proteins for Tumor-Immune Proximity Induction” (ACS Central Science, 2023) come the findings set out here.

Where two headings read alike, the source gives them in different places.

This test concerns serum polyclonal antirhamnose antibodies (human IgG). The test is described as follows: BLI affinity of rhamnose probes for polyclonal human IgG. In kind it is binding. The following applies: for kon: anti-rhamnose assumed 3% of total IgG; for koff: dissociation in 100 mM L-rhamnose. From the text: We began by synthesizing antirhamnose affinity probes consisting of α-O/α-S and β-S rhamnose glycosides functionalized with a propargyl group for CuAAC-mediated coupling to a biotin TBD (compounds 1–3, Figure 1A and Scheme S1). This enabled rhamnose immobilization onto streptavidin surfaces and subsequent antibody binding studies. We used biolayer interferometry (BLI) to estimate and compare the apparent affinity of serum polyclonal antirhamnose antibodies for each rhamnose affinity probe (Figure 1B). […] Next, biosensors were submerged in a buffer containing free rhamnose competitor, and dissociation kinetics were measured (Figure 1B, Dissociation). The dissociation buffer contained 100 mM rhamnose competitor to inhibit avidity-based antibody rebinding, which interferes with koff measurements. […] In the context of proximity-inducing molecule development, this low monovalent sugar-binding affinity will ultimately limit ternary complex formation. […] The confirmation of low affinity binding also supports why multivalency has been historically required to efficiently engage antirhamnose antibodies for tumor-immune proximity induction and engage sugar binding receptors in general.
Figure 1 Affinity determination of endogenous and monoclonal antibody sources for L-rhamnose glycoside variants. A. Chemical structures of rhamnose affinity probes. B/C. Approximation of antirhamnose antibody binding affinity for probes 1–3 using biolayer interferometry. B. Purified human serum IgG is used to estimate the affinity of endogenous polyclonal serum antirhamnose antibodies for each affinity probe 1–3. C. Monoclonal anti-23F antibody is used to estimate the potential affinity of vaccine-induced antirhamnose antibodies for each affinity probe 1–3. […] Association was monitored for 900 (B) or 600 (C) seconds. The loaded biosensor probe was then dipped into a dissociation solution of 100 mM L-rhamnose for 600 s. Association curves were fit to a two-phase association model in GraphPad Prism using Kfast to calculate kon. Dissociation curves were similarly fit to a two-phase decay using Kfast to calculate koff. TEXT PRINTED IN THE PICTURE: (B) no label printed: Polyclonal Human IgG: Kd ≈ 7 x10^-5 M | (C) no label printed: Monoclonal Anti-23F: Kd ≈ 6 x10^-6 M DOUBTS OF THE COPYIST ABOUT THIS PICTURE: Panel B, Kd ≈ 7 x10^-5 M: printed once in the plot with no link to a single curve, so it is unclear which of (1) α–O, (2) α–S and (3) β–S it applies to / Panel C, Kd ≈ 6 x10^-6 M: printed once in the plot with no link to a single curve, so it is unclear which of (1) α–O, (2) α–S and (3) β–S it applies to […]
General Notes and Materials […]
Biolayer Interferometry (BLI) General notes and Materials
IgG from human serum was purchased from Innovative Research (IHUI GGAP1000MG). Anti -23F antibody was purchased fr om Creative Biolabs (PABX -173). Biolayer Interferometry (BLI) was conducted using a ForteBio Octet Red96, and streptavidin biosensors (Sartorius - 18-5019) or ProG biosensors (Sartorius – 18-5082). For quench, a 5% skim milk (Nestle Carnation Instant Skim Milk) solution in 1X kinetics buffer was used. The instrument was set at 25 °C, with 1000 RPM, and acquisition rate of 5 Hz.
Each well of a black well plate (Greiner Bio -One - 655086) was filled with 200 µL of appropriate solution.
Dissociation buffer was comprised of L-rhamnose (100 mM, Sigma Aldrich – R3875-10G) in 1X kinetics buffer to reduce avidity contribution to dissociation rate (koff).
SDS-PAGE General notes and Materials […]
Carboxyfluorescein was purchased from Sigma Aldrich (21877 -5G-F). IgG from human serum was purchased from Innovative Research (IHUIGGAP1000MG). Anti -23F antibody was purchased from Creative Biolabs (PABX -173). Laemellie Buffer (2x) was purchased from Sigma Aldrich (S3401 -10VL).
Pre-cast Tris-Glycine Gels (4-20%) were purchased from Fisher Scientific (XP04202BOX). Standard protein ladder was purchased from Bio Rad (1610363). […]

Setting [1] is: average of three IgG concentrations, read-out: Avg Kd.

Broadly, the kon is a measure of how fast the partners come together. For orientation: koff means a measure of how fast the partners let go of each other. The term Kd denotes the free concentration of one partner at which half of the binding sites on the other are occupied at equilibrium, for simple one-to-one binding. Regarding `C[C@@H]1O[C@@H](OCc2cn(CCOCCNC(=O)OCCOCCOCCOCCOCCOCCOCCOCCNC(=O)CCCC[C@@H]3SC[C@@H]4NC(=O)N[C@@H]43)nn2)[C@H](O)[C@H](O)[C@H]1O` [compound 1], the kon reads like this: (26.2 µM IgG) 20749 M⁻¹ s⁻¹; (52.5 µM IgG) 13810 M⁻¹ s⁻¹; (105 µM IgG) 8235 M⁻¹ s⁻¹. The koff by setting is: (26.2 µM IgG) 1.199 s⁻¹; (52.5 µM IgG) 1.112 s⁻¹; (105 µM IgG) 1.058 s⁻¹. The dissociation constant (Kd) (26.2 µM IgG, read-out: Kd) came out at 58 µM; the dissociation constant (Kd) (52.5 µM IgG, read-out: Kd) stood at 81 µM; the Kd (105 µM IgG, read-out: Kd) worked out at 128 µM; the dissociation constant Kd under setting [1] turned out to be 89 ± 36 µM.

Consider `C[C@@H]1O[C@@H](SCc2cn(CCOCCNC(=O)OCCOCCOCCOCCOCCOCCOCCOCCNC(=O)CCCC[C@@H]3SC[C@@H]4NC(=O)N[C@@H]43)nn2)[C@H](O)[C@H](O)[C@H]1O` [compound 2], for which the kon runs as follows: (26.2 µM IgG) 21981 M⁻¹ s⁻¹; (52.5 µM IgG) 14298 M⁻¹ s⁻¹; (105 µM IgG) 8194 M⁻¹ s⁻¹. Also, the dissociation rate constant (koff) stood at 1.103 s⁻¹ (26.2 µM IgG), 0.97 s⁻¹ (52.5 µM IgG) and 0.8262 s⁻¹ (105 µM IgG). Besides, the Kd (26.2 µM IgG, read-out: Kd) came to 50 µM; the Kd (52.5 µM IgG, read-out: Kd) turned out to be 68 µM; the Kd (105 µM IgG, read-out: Kd) turned out to be 101 µM; the dissociation constant Kd under setting [1] came to 73 ± 26 µM.
